In PMC7603008 (Materials, 2020):
Ends that are not written are not given here.

Key:
[1] = Dentinal tubule penetration by confocal laser scanning microscopy; set-up: species or system human; details: Rhodamin B-labeled Cpne7-DP 20 µg microbrushed for 1 min onto acid-etched dentin of extracted tooth, PBS wash
Procedure: Human third molars were collected at the Seoul National University Dental Hospital (Seoul, Korea), and the experimental protocol was approved by the Institutional Review Board (IRB No: S-D20140007). Teeth were decoronated to 2–3 mm using a safe diamond disc (Isomet, Buehler Ltd., Düsseldorf, Germany) to eliminate the coronal enamel layer and expose the dentin surface. Teeth were then treated with 5 mL of 32% phosphoric acid solution for 5 min to completely open the dentinal tubules. To remove the residual smear layer, specimens were ultrasonicated in deionized water twice for 5 min each and then rinsed with PBS three times.
Cpne7-DP was tagged with Rhodamin B dye using the Rhodamine Fast Conjugation kit (ab188286, Abcam, Cambridge, MA, USA) according to the manufacturer’s instructions. Rhodamin B-labeled Cpne7-DP (20 µg) was applied to the dentin surfaces of specimens with the help of disposable microbrushes for 1 min, and then specimens were washed with PBS three times. Subsequently, the specimens were longitudinally sectioned at a thickness of 0.5 mm using a safe diamond disc. The sections were mounted onto glass slides and scanned under a confocal laser scanning microscope (LSM 700; Carl Zeiss, Jena, Germany).

hDPCs = experiment: MTT cytotoxicity / proliferation assay; format: cell-based, human; details: 0 to 5 days, absorbance 540 nm, three independent experiments in triplicate
Procedure: To evaluate the effects of Cpne7-DP on hDPCs proliferation, an MTT [3-(4,5-Dimethylthiazol-2-yl)-2,5-diphenyltetrazolium bromide, a tetrazole] assay (Sigma-Aldrich, Saint Louis, MO, USA) was performed. Cells were seeded on a 96-well plate at a density of 3 × 10^3 cells/well and treated with Cpne7-DP after 24 h. Cells were cultured for up to 5 days, and MTT analyses were performed on days 0, 1, 3, and 5. After washing with phosphate-buffered saline (PBS), 20 µL of MTT was added to each well and incubated for 4 h at 37 °C. After removing the MTT solution, the converted dye was dissolved in Me2SO and measured by reading the absorbance at a wavelength of 540 nm with a microplate reader (Multiskan EX; Thermo Electron Corp., Waltham, MA, USA). Three independent experiments with triplicate samples were analyzed.

MDPC-23 cells = experiment: Peptide translocation and localization by immunofluorescence; format: cell-based, mouse
Procedure: For peptide translocation and localization analysis, a Cy5 Fast Conjugation Kit (ab188288, Abcam, Cambridge, MA, USA) was used to tag Cpne7-DP according to the manufacturer’s instructions. MDPC-23 cells were treated with Cy5-labeled Cpne7-DP (10 µg/mL) and fixed 3 h later. Before fixing with 4% paraformaldehyde in PBS, cells in Laboratory-Tek chamber slides (Nunc, Rochester, NY, USA) were washed with PBS. Cells were then visualized using fluorescence microscopy (AX70, Olympus, Tokyo, Japan). DAPI (Sigma-Aldrich) was used to identify the chromosomal DNA in the nucleus (1:1000 dilution).

KYKQKRRSYK [Cpne7-DP]
Ability to permeate dentinal tubules [1]: flow through the entire length of the dentinal tubules into the pulp | Cytotoxicity versus control (MTT) (hDPCs): no significant difference in cytotoxicity | Internalization with chlorpromazine (clathrin-mediated endocytosis inhibitor) (MDPC-23 cells; MDPC-23 cells pre-treated with CPZ 10 and 20 μM for 1 h, immunofluorescence): diffusely localized to the cytoplasm | Internalization with ethylisopropyl amiloride (macropinocytosis inhibitor) (MDPC-23 cells; MDPC-23 cells pre-treated with EIPA for 1 h, immunofluorescence): no effect on the cytoplasmic localization | Internalization with methyl-β-cyclodextrin (caveolin-mediated endocytosis inhibitor) (MDPC-23 cells; MDPC-23 cells pre-treated with MβCD for 1 h, immunofluorescence): diffusely localized to the cytoplasm | Internalization in nucleolin siRNA-transfected cells (MDPC-23 cells; MDPC-23 cells pre-treated with nucleolin siRNA for 1 h, immunofluorescence): diffusely located in the cytoplasm | Intracellular distribution (MDPC-23 cells; MDPC-23 cells, Cy5-labeled Cpne7-DP 10 µg/mL, fixed 3 h later, fluorescence microscopy): localized to the cytoplasm
